Columns and labels:
[1] = biological target: High affinity nerve growth factor receptor (Homo sapiens, UniProt P04629); experiment: Inhibition of TrkA
[2] = Antiproliferative activity against rat RKE cells expressing CD8-TrkA after 3 days; format: functional, cell-based; conditions: 72 h
[3] = biological target: Cyclin-dependent kinase 2 (Homo sapiens, UniProt P24941); experiment: Inhibition of CDK2
[4] = biological target: Insulin-like growth factor 1 receptor (Homo sapiens, UniProt P08069); experiment: Inhibition of IGF1R
Chain of Insulin-like growth factor 1 receptor (P08069 31-736 limits assumed): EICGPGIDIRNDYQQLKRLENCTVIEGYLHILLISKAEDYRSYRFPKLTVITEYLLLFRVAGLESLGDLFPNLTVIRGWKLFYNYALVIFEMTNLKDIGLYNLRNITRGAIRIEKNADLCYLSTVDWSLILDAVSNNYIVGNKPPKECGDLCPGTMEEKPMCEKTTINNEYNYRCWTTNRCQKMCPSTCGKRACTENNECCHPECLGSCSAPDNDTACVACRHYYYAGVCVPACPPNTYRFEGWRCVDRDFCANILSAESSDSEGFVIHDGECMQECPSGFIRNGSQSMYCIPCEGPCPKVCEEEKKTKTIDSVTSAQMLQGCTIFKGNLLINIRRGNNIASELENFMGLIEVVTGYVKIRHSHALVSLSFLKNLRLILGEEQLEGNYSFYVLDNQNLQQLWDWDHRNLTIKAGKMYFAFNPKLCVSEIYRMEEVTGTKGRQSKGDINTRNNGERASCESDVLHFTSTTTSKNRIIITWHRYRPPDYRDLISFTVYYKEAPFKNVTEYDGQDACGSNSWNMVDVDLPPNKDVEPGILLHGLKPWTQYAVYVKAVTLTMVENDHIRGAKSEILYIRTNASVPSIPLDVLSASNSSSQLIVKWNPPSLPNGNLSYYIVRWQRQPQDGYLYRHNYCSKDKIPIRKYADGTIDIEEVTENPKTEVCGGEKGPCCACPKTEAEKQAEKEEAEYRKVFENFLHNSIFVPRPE
Chain of Insulin-like growth factor 1 receptor (P08069 741-1367 limits assumed): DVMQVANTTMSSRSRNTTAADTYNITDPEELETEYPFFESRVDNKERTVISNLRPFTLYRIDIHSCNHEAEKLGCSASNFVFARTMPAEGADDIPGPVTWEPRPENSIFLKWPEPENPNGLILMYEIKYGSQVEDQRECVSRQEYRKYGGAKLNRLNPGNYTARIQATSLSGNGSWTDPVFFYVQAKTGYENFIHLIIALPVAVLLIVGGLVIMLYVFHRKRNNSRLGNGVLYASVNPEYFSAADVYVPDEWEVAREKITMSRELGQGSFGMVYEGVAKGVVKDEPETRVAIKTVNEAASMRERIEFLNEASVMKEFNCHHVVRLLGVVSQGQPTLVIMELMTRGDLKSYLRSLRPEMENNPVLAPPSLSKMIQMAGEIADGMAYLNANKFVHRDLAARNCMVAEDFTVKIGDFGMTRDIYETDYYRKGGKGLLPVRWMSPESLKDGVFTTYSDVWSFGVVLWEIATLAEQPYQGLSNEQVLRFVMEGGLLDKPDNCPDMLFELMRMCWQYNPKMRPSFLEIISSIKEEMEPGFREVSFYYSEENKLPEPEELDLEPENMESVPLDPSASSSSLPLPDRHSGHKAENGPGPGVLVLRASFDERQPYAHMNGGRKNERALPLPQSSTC

[5] = tested on: SH-SY5Y; experiment: Antiproliferative activity against human SH-SY5Y cells after 3 days; format: functional, cell-based; conditions: 72 h
[6] = Antiproliferative activity against TrkA deficient rat RK3E cells after 3 days; format: functional, cell-based; conditions: 72 h
[7] = biological target: Hepatocyte growth factor receptor (Homo sapiens, UniProt P08581); experiment: Inhibition of Met
Chain of Hepatocyte growth factor receptor (P08581 whole entry): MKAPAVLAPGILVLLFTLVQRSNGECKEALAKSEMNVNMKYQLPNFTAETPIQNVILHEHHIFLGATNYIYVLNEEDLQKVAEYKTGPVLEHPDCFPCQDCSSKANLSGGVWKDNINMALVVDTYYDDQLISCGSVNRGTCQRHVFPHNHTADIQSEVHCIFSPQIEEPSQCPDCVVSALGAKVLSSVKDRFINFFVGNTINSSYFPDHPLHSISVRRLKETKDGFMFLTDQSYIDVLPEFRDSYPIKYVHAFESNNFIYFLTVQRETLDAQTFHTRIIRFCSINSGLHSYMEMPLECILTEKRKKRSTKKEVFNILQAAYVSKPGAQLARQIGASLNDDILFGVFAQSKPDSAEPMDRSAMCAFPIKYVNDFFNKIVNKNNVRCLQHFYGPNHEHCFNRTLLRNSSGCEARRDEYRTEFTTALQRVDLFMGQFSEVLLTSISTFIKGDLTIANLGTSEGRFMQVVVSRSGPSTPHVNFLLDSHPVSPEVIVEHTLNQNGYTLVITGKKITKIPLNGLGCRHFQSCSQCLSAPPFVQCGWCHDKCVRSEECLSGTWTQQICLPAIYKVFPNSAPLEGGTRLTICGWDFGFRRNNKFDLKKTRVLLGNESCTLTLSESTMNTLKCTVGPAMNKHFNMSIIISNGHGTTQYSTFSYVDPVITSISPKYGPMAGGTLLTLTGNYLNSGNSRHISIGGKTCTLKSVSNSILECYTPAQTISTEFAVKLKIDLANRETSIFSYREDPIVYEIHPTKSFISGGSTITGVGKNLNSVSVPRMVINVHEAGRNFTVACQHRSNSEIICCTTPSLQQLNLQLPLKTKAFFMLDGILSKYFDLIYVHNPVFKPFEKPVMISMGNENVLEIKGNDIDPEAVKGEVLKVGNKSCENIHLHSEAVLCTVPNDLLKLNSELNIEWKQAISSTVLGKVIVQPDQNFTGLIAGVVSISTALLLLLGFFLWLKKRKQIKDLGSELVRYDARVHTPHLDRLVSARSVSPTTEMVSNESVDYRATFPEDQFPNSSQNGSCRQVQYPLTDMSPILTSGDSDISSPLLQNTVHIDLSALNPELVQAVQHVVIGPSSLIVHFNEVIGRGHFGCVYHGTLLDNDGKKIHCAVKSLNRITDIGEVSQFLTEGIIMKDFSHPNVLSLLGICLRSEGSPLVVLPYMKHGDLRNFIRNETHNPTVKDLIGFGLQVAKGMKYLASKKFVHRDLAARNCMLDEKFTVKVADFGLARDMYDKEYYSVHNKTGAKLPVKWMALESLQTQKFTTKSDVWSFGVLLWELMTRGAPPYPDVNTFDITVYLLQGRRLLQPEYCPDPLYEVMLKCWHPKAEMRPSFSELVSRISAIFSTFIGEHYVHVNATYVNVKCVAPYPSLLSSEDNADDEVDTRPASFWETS

[8] = Inhibition of VEGFR
[9] = Inhibition of VEGFR at 2 uM

Chain of High affinity nerve growth factor receptor (P04629 whole entry): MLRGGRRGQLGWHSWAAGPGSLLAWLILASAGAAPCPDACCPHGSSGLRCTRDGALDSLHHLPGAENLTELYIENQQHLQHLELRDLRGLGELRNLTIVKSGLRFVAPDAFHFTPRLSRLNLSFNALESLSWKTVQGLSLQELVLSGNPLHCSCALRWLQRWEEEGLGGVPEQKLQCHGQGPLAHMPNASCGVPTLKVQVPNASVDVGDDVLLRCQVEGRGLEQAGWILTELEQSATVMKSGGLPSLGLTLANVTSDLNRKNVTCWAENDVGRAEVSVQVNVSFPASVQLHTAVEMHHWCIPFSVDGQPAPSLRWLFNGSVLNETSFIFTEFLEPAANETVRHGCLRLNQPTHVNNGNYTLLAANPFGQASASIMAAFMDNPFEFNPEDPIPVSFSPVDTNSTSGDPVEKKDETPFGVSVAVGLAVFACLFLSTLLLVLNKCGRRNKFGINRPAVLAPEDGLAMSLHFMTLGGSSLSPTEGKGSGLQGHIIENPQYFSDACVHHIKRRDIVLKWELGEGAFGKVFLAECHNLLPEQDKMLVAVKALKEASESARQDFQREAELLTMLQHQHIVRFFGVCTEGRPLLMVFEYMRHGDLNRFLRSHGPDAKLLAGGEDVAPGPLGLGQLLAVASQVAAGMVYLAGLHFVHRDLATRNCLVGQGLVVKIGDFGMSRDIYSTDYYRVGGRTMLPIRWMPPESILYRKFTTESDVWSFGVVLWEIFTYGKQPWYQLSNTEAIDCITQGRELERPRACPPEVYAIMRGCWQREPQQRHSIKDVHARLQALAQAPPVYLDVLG

## CC(=O)N1CCN(C(=O)c2cc(Sc3cnc(N)s3)ccc2C)CC1
[1]
  IC50: > 5000 nM

## Cc1ccc(Sc2cnc(Nc3cccc(Br)n3)s2)cc1C(=O)NCCC#N
[1]
  IC50: 67 nM

## Cc1ccc(Sc2cnc(Nc3cccc(Br)n3)s2)cc1C(=O)N1CCN(C(=O)[C@H](C)N)CC1
[2]
  IC50: 1150 nM
[3]
  IC50: 520 nM
[4]
  IC50: 360 nM
[5]
  IC50: 4260 nM
[6]
  IC50: 3520 nM
[7]
  IC50: > 1000 nM
[1]
  IC50: 1 nM

## CC(=O)Nc1ncc(Sc2ccc(C)c(C(=O)N3CCN(C(C)=O)CC3)c2)s1
[1]
  IC50: > 5000 nM

## CC(=O)N1CCN(C(=O)c2cccc(Sc3cnc(Nc4cccc(Br)n4)s3)c2)CC1
[1]
  IC50: 50 nM

## Cc1ccc(Sc2cnc(Nc3cccc(Br)n3)s2)cc1C(=O)N1CCN(C(=O)CN)CC1
[2]
  IC50: 550 nM
[3]
  IC50: 540 nM
[4]
  IC50: > 1000 nM
[5]
  IC50: 3060 nM
[6]
  IC50: 4080 nM
[7]
  IC50: 430 nM
[1]
  IC50: 0.6 nM

## CCNC(=O)c1cc(Sc2cnc(Nc3ccccn3)s2)ccc1C
[2]
  IC50: > 10000 nM
[5]
  IC50: > 10000 nM
[6]
  IC50: > 10000 nM
[1]
  IC50: > 5000 nM

## Cc1ccc(Sc2cnc(Nc3ccccn3)s2)cc1NC(=O)CC#N
[1]
  IC50: 60 nM

## Cc1ccc(Sc2cnc(Nc3cccc(Br)n3)s2)cc1C(=O)N(C)CCC#N
[2]
  IC50: 370 nM
[5]
  IC50: 1170 nM
[6]
  IC50: 3320 nM
[1]
  IC50: 10 nM

## CC(=O)N1CCN(C(=O)c2cc(Sc3cnc(Nc4ccccn4)s3)ccc2C)CC1
[1]
  IC50: 80 nM

## CC(=O)N1CCCN(C(=O)c2cc(Sc3cnc(Nc4ccccn4)s3)ccc2C)CC1
[1]
  IC50: 1100 nM

## Cc1ccc(Sc2cnc(Nc3ccccn3)s2)cc1C(=O)NCc1ccccc1
[1]
  IC50: > 5000 nM

## Cc1ccc(Sc2cnc(Nc3ccccn3)s2)cc1C(=O)N1CCNCC1
[1]
  IC50: 160 nM

## COC(=O)N1CCN(C(=O)c2cc(Sc3cnc(Nc4ccccn4)s3)ccc2C)CC1
[1]
  IC50: 210 nM

## Cc1ccc(Sc2cnc(Nc3ccccn3)s2)cc1C(=O)NCC#N
[1]
  IC50: 44 nM

## CC(=O)NCCNC(=O)c1cc(Sc2cnc(Nc3ccccn3)s2)ccc1C
[1]
  IC50: 320 nM

## Cc1ccc(Sc2cnc(Nc3ccccn3)s2)cc1C(=O)N1CCN(S(C)(=O)=O)CC1
[1]
  IC50: 910 nM

## Cc1ccc(Sc2cnc(Nc3cccc(Br)n3)s2)cc1C(=O)N1CCN(C(=O)[C@@H](C)N)CC1
[2]
  IC50: 230 nM
[3]
  IC50: 230 nM
[4]
  IC50: 700 nM
[5]
  IC50: 1780 nM
[6]
  IC50: 3610 nM
[7]
  IC50: 170 nM
[1]
  IC50: 1 nM

## Cc1ccc(Sc2cnc(Nc3ccccn3)s2)cc1C(=O)NCCO
[1]
  IC50: 760 nM

## CC(=O)N1CCN(C(=O)c2cccc(Sc3cnc(Nc4ccccn4)s3)c2)CC1
[1]
  IC50: 240 nM

## C#CCNC(=O)c1cc(Sc2cnc(Nc3ccccn3)s2)ccc1C
[1]
  IC50: 1200 nM

## CCC(=O)N1CCN(C(=O)c2cc(Sc3cnc(Nc4cccc(Br)n4)s3)ccc2C)CC1
[1]
  IC50: 21 nM

## CC(=O)N1CCN(Cc2cc(Sc3cnc(Nc4ccccn4)s3)ccc2C)CC1
[1]
  IC50: 720 nM

## Cc1ccc(Sc2cnc(Nc3cccc(Br)n3)s2)cc1C(=O)N(C)CC#N
[2]
  IC50: 390 nM
[5]
  IC50: 750 nM
[6]
  IC50: 3000 nM
[1]
  IC50: 2 nM

## Cc1ccc(Sc2cnc(Nc3ccccn3)s2)cc1C(=O)NCCC#N
[1]
  IC50: 65 nM

## Cc1ccc(Sc2cnc(Nc3ccccn3)s2)cc1C(=O)NC(C)C
[1]
  IC50: 2000 nM

## CC(=O)N1CCN(C(=O)c2cc(Sc3cnc(Nc4cccc(Br)n4)s3)ccc2C)CC1
[2]
  IC50: 250 nM
[3]
  IC50: 490 nM
[4]
  IC50: > 1000 nM
[5]
  IC50: 1140 nM
[6]
  IC50: 2280 nM
[7]
  IC50: > 1000 nM
[8]
  IC50: > 25000 nM
[1]
  IC50: 1 nM

## CC(=O)N1CCN(C(=O)c2ccc(Sc3cnc(Nc4cccc(Br)n4)s3)cc2)CC1
[1]
  IC50: 1300 nM

## Cc1ccc(Sc2cnc(Nc3cccc(Br)n3)s2)cc1C(=O)N1CCN(CC(N)=O)CC1
[1]
  IC50: 150 nM

## CCN1CCN(C(=O)c2cc(Sc3cnc(Nc4cccc(Br)n4)s3)ccc2C)CC1
[1]
  IC50: 230 nM

## CNCCN(C)C(=O)c1cc(Sc2cnc(Nc3cccc(Br)n3)s2)ccc1C
[2]
  IC50: 460 nM
[3]
  IC50: 180 nM
[4]
  IC50: > 1000 nM
[5]
  IC50: 1660 nM
[6]
  IC50: 3060 nM
[7]
  IC50: > 1000 nM
[9]
  inhibition: 8%
[1]
  IC50: 31 nM

## CC(=O)N1CCN(C(=O)c2ccccc2Sc2cnc(Nc3cccc(Br)n3)s2)CC1
[1]
  IC50: 1900 nM

## CNCCNC(=O)c1cc(Sc2cnc(Nc3ccccn3)s2)ccc1C
[1]
  IC50: 190 nM

## CC(=O)N1CCN(C(=O)c2cccc(Sc3cnc(Nc4ccc(Br)cn4)s3)c2)CC1
[1]
  IC50: 520 nM

## Cc1ccc(Sc2cnc(Nc3ccccn3)s2)cc1C(N)=O
[1]
  IC50: 790 nM

## CC(=O)N1CCN(C(=O)c2cccc(Sc3cnc(Nc4cccc(C)n4)s3)c2)CC1
[1]
  IC50: 1100 nM

Reference: ChEMBL document CHEMBL1140800, “Identification of 2-amino-5-(thioaryl)thiazoles as inhibitors of nerve growth factor receptor TrkA” (Bioorg Med Chem Lett, 2008)
